From patent US9340590B2 (priority 2011, dated 2016)
Like-named read-outs stand apart in the source and are kept apart here. Positions of bridges follow the written chain, without caps; N, C: chain ends. Non-standard residues stand in square brackets, D forms with d. Residues, ends and D or L forms follow the SMILES beside them. 1Nal = N[C@@H](Cc1cccc2ccccc12)C(=O)O; 2Nal = N[C@@H](Cc1ccc2ccccc2c1)C(=O)O; 2Pal = N[C@@H](Cc1ccccn1)C(=O)O; Abu = CC[C@H](N)C(=O)O

Legend:
hNav1.7 = hNav1.7 (Homo sapiens, UniProt Q15858); test: cell-based
hNav1.5 = hNav1.5 (Homo sapiens, UniProt Q14524); test: cell-based
Sequence of hNav1.5 (Q14524 whole entry, looked up): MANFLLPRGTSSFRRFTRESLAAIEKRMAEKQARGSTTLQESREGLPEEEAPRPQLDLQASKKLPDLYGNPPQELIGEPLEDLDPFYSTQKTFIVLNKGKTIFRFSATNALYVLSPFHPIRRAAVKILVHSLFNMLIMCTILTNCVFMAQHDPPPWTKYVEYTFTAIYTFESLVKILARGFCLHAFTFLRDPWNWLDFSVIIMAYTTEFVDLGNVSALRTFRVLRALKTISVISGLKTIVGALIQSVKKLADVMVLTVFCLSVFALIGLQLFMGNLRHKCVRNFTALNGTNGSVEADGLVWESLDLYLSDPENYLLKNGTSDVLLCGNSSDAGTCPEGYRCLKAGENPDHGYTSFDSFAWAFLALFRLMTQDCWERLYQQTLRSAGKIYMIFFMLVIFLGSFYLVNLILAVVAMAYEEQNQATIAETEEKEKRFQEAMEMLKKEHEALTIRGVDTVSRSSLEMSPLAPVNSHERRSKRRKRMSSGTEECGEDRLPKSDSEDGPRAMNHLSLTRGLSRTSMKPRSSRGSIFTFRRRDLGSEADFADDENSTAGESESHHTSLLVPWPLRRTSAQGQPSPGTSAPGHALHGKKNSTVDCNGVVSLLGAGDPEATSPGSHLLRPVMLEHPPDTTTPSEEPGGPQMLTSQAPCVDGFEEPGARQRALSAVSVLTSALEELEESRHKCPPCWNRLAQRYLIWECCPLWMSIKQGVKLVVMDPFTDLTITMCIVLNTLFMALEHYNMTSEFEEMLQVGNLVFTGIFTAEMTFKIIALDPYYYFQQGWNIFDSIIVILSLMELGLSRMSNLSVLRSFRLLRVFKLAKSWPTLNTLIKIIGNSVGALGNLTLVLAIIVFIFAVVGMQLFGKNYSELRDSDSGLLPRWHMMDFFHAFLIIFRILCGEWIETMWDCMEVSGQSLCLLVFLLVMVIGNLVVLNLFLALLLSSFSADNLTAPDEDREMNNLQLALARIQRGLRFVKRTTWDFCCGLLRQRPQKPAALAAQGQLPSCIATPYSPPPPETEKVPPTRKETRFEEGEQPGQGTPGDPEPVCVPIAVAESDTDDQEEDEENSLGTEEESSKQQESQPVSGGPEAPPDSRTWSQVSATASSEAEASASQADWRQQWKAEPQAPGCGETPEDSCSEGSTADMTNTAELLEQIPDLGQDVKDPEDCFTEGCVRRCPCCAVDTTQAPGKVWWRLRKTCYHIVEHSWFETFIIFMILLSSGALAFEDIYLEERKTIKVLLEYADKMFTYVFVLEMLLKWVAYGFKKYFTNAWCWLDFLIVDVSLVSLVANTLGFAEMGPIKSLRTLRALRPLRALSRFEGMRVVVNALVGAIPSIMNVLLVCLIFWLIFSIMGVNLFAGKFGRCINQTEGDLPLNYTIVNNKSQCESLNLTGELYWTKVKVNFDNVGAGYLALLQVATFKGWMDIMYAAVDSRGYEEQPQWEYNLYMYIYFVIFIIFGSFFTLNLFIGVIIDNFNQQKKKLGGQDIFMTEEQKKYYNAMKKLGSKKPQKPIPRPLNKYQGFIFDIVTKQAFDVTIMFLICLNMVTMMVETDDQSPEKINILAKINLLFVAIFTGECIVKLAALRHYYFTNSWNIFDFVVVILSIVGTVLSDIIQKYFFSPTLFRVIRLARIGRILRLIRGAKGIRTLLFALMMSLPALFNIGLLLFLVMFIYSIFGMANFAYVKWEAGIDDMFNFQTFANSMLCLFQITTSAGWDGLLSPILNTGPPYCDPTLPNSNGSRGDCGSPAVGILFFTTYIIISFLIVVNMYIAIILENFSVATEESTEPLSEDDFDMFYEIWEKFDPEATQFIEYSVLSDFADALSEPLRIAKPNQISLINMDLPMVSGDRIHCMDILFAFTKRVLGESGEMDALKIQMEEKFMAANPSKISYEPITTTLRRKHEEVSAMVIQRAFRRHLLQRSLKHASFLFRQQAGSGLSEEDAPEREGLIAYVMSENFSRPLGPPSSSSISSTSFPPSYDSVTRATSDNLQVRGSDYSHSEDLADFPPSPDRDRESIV

Sequence of hNav1.7 (Q15858 whole entry, looked up): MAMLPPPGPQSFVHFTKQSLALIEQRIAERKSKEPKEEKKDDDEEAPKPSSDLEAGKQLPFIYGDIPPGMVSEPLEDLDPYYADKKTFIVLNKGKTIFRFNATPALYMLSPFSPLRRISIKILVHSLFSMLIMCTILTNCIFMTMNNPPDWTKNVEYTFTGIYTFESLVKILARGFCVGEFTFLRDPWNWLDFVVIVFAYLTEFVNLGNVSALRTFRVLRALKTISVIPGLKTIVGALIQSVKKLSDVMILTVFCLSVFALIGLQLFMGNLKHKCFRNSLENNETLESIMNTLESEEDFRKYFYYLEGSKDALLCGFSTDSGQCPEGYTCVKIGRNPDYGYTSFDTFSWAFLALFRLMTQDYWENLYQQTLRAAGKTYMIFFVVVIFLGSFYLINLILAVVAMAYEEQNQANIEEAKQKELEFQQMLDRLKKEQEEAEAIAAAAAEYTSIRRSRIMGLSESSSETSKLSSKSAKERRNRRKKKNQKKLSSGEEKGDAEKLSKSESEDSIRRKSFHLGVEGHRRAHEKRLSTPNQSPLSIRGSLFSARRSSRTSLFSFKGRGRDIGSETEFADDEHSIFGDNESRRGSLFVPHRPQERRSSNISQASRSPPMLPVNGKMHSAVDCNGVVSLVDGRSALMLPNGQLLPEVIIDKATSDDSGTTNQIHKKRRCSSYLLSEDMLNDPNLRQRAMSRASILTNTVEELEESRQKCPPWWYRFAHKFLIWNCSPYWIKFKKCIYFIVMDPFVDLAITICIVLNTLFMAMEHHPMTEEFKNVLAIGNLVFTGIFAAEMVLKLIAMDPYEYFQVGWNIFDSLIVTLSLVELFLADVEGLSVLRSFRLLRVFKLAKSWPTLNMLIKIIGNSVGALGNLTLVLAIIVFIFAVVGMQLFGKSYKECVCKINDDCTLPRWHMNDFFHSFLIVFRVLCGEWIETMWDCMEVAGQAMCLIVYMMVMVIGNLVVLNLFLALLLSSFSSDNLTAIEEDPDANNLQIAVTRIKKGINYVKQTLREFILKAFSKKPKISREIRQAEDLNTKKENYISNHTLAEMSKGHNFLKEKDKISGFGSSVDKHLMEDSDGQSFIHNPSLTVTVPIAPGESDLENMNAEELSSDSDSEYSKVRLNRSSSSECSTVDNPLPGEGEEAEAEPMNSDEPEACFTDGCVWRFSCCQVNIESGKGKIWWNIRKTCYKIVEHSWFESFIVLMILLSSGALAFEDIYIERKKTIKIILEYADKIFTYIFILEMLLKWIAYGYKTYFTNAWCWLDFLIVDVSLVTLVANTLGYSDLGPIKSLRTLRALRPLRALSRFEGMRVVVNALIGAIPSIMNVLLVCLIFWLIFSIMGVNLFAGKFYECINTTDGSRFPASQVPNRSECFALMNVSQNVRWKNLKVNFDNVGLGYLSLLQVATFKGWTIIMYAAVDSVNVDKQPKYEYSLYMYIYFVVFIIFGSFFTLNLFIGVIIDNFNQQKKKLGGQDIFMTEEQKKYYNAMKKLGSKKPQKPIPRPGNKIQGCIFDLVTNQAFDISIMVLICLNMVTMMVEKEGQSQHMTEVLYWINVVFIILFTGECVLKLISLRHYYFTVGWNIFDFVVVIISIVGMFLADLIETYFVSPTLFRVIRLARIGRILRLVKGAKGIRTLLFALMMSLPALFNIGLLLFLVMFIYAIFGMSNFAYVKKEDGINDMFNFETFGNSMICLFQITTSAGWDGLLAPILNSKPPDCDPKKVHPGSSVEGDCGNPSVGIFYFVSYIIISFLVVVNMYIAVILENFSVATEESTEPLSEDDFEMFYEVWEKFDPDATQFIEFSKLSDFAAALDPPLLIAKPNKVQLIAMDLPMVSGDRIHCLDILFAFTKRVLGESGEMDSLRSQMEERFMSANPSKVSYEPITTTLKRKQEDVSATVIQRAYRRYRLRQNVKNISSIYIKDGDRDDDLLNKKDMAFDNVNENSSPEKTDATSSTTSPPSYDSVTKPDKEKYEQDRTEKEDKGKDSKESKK

SMILES | IC50 (hNav1.7; read-out: Nav1.7 Use IC50) [nM] | IC50 (hNav1.5) [nM] | IC50 (hNav1.7; Nav1.7 Use IC50) [nM]
CC[C@H](C)[C@@H]1NC(=O)[C@@H]2CSSC[C@@H]3NC(=O)[C@H](C(C)C)NC(=O)[C@H](CC(C)C)NC(=O)[C@H](CC(N)=O)NC(=O)[C@@H]4CCCN4C(=O)[C@H](CCCNC(=N)N)NC(=O)[C@H](CSSC[C@H](NC(=O)[C@@H](N)CC(=O)O)C(=O)N[C@@H](CC(C)C)C(=O)NCC(=O)N[C@@H](Cc4ccccc4)C(=O)N[C@@H](CCSC)C(=O)N[C@@H](CCCNC(=N)N)C(=O)N[C@@H](CCCCN)C(=O)N2)NC(=O)[C@H](CSSC[C@@H](C(=O)N[C@@H](CCCCN)C(=O)N[C@@H](Cc2ccc(O)cc2)C(=O)N[C@H](C(=O)N[C@@H](Cc2ccccc2)C(N)=O)C(C)C)NC(=O)[C@H](Cc2c[nH]c4ccccc24)NC(=O)[C@H](CCCCN)NC(=O)[C@H](Cc2c[nH]cn2)NC(=O)[C@H]([C@@H](C)O)NC(=O)[C@H](CCCNC(=N)N)NC(=O)[C@H](CO)NC3=O)NC(=O)[C@H](CCCCN)NC(=O)[C@H](CC(=O)O)NC(=O)[C@H](Cc2cccc3ccccc23)NC(=O)[C@H](CC(=O)O)NC(=O)[C@@H]2CCCN2C1=O [[1-Nal13]GpTx-1(1-34)] (H-DCLGFMRKCIPD[1Nal]DKCCRPNLVCSRTHKWCKYVF-NH2; disulfide 2-17, 9-23, 16-30) | 2 | 7330 | 
CC[C@@H]1NC(=O)[C@@H]2CSSC[C@@H](C(=O)N[C@@H](CCCCN)C(=O)N[C@@H](Cc3ccc(O)cc3)C(=O)N[C@H](C(=O)N[C@@H](Cc3ccccc3)C(N)=O)C(C)C)NC(=O)[C@H](Cc3c[nH]c4ccccc34)NC(=O)[C@H](CCCCN)NC(=O)[C@H](Cc3c[nH]cn3)NC(=O)[C@H]([C@@H](C)O)NC(=O)[C@H](CCCNC(=N)N)NC(=O)[C@H](CO)NC(=O)[C@H](CSSC[C@H](NC(=O)[C@H](CCCCN)NC(=O)[C@H](CCCNC(=N)N)NC(=O)[C@H](CCSC)NC(=O)[C@H](Cc3ccccc3)NC(=O)CNC(=O)[C@H](CC(C)C)NC(=O)[C@H](CC)NC(=O)[C@@H](N)CC(=O)O)C(=O)N[C@@H]([C@@H](C)CC)C(=O)N3CCC[C@H]3C(=O)N[C@@H](CC(=O)O)C(=O)N[C@@H](CC(N)=O)C(=O)N[C@@H](CC(=O)O)C(=O)N[C@@H](CCCCN)C(=O)N2)NC(=O)[C@H](C(C)C)NC(=O)[C@H](CC(C)C)NC(=O)[C@H](CC(N)=O)NC(=O)[C@@H]2CCCN2C(=O)[C@H](CCCNC(=N)N)NC1=O [[2-Abu2,17]GpTx-1(1-34)] (H-D[Abu]LGFMRKCIPDNDKC[Abu]RPNLVCSRTHKWCKYVF-NH2; disulfide 9-23, 16-30) |  | 10000 | 21
CC[C@@H]1NC(=O)CNC(=O)[C@H](CC(C)C)NC(=O)[C@@H](NC(=O)[C@@H](N)CC(=O)O)CSSC[C@@H]2NC(=O)[C@@H]3CSSC[C@@H](C(=O)N[C@@H](CCCCN)C(=O)N[C@@H](Cc4ccc(O)cc4)C(=O)N[C@H](C(=O)N[C@@H](Cc4ccccc4)C(N)=O)C(C)C)NC(=O)[C@H](Cc4c[nH]c5ccccc45)NC(=O)[C@H](CCCCN)NC(=O)[C@H](Cc4c[nH]cn4)NC(=O)[C@H]([C@@H](C)O)NC(=O)[C@H](CCCNC(=N)N)NC(=O)[C@H](CO)NC(=O)[C@H](CSSC[C@H](NC(=O)[C@H](CCCCN)NC(=O)[C@H](CCCNC(=N)N)NC(=O)[C@H](CC(C)C)NC1=O)C(=O)N[C@@H]([C@@H](C)CC)C(=O)N1CCC[C@H]1C(=O)N[C@@H](CC(=O)O)C(=O)N[C@@H](CC(N)=O)C(=O)N[C@@H](CC(=O)O)C(=O)N[C@@H](CCCCN)C(=O)N3)NC(=O)[C@H](C(C)C)NC(=O)[C@H](CC(C)C)NC(=O)[C@H](CC(N)=O)NC(=O)[C@@H]1CCCN1C(=O)[C@H](CCCNC(=N)N)NC2=O [[2-Abu5;Leu6]GpTx-1(1-34)] |  | > 10000 | 22
CC[C@H](C)[C@@H]1NC(=O)[C@@H]2CSSC[C@@H]3NC(=O)[C@H](C(C)C)NC(=O)[C@H](CC(C)C)NC(=O)[C@H](CC(N)=O)NC(=O)[C@@H]4CCCN4C(=O)[C@H](CCCNC(=N)N)NC(=O)[C@H](CSSC[C@H](NC(=O)[C@@H](N)CC(=O)O)C(=O)N[C@@H](CC(C)C)C(=O)NCC(=O)N[C@@H](Cc4ccccc4)C(=O)N[C@@H](CCSC)C(=O)N[C@@H](CCCNC(=N)N)C(=O)N[C@@H](CCCCN)C(=O)N2)NC(=O)[C@H](CSSC[C@@H](C(=O)N[C@@H](CCCCN)C(=O)N[C@@H](Cc2ccc(O)cc2)C(=O)N[C@H](C(=O)N[C@@H](Cc2ccccc2)C(N)=O)C(C)C)NC(=O)[C@H](Cc2ccc4ccccc4c2)NC(=O)[C@H](CCCCN)NC(=O)[C@H](Cc2c[nH]cn2)NC(=O)[C@H]([C@@H](C)O)NC(=O)[C@H](CCCNC(=N)N)NC(=O)[C@H](CO)NC3=O)NC(=O)[C@H](CCCCN)NC(=O)[C@H](CC(=O)O)NC(=O)[C@H](CC(N)=O)NC(=O)[C@H](CC(=O)O)NC(=O)[C@@H]2CCCN2C1=O [[2-Nal29]GpTx-1(1-34)] (H-DCLGFMRKCIPDNDKCCRPNLVCSRTHK[2Nal]CKYVF-NH2; disulfide 2-17, 9-23, 16-30) |  | > 10000 | 66
CC[C@H](C)[C@@H]1NC(=O)[C@@H]2CSSC[C@@H]3NC(=O)[C@H](C(C)C)NC(=O)[C@H](CC(C)C)NC(=O)[C@H](CC(N)=O)NC(=O)[C@@H]4CCCN4C(=O)[C@H](Cc4ccccn4)NC(=O)[C@H](CSSC[C@H](NC(=O)[C@@H](N)CC(=O)O)C(=O)N[C@@H](CC(C)C)C(=O)NCC(=O)N[C@@H](Cc4ccccc4)C(=O)N[C@@H](CCSC)C(=O)N[C@@H](CCCNC(=N)N)C(=O)N[C@@H](CCCCN)C(=O)N2)NC(=O)[C@H](CSSC[C@@H](C(=O)N[C@@H](CCCCN)C(=O)N[C@@H](Cc2ccc(O)cc2)C(=O)N[C@H](C(=O)N[C@@H](Cc2ccccc2)C(N)=O)C(C)C)NC(=O)[C@H](Cc2c[nH]c4ccccc24)NC(=O)[C@H](CCCCN)NC(=O)[C@H](Cc2cnc[nH]2)NC(=O)[C@H]([C@@H](C)O)NC(=O)[C@H](CCCNC(=N)N)NC(=O)[C@H](CO)NC3=O)NC(=O)[C@H](CCCCN)NC(=O)[C@H](CC(=O)O)NC(=O)[C@H](CC(N)=O)NC(=O)[C@H](CC(=O)O)NC(=O)[C@@H]2CCCN2C1=O [[2PAL18]GpTx-1(1-34)] (H-DCLGFMRKCIPDNDKCC[2Pal]PNLVCSRTHKWCKYVF-NH2; disulfide 2-17, 9-23, 16-30) |  | 13700 | 3
CC[C@H](C)[C@@H]1NC(=O)[C@@H]2CSSC[C@@H]3NC(=O)[C@H](Cc4ccccn4)NC(=O)[C@H](CC(C)C)NC(=O)[C@H](CC(N)=O)NC(=O)[C@@H]4CCCN4C(=O)[C@H](CCCNC(=N)N)NC(=O)[C@H](CSSC[C@H](NC(=O)[C@@H](N)CC(=O)O)C(=O)N[C@@H](CC(C)C)C(=O)NCC(=O)N[C@@H](Cc4ccccc4)C(=O)N[C@@H](CCSC)C(=O)N[C@@H](CCCNC(=N)N)C(=O)N[C@@H](CCCCN)C(=O)N2)NC(=O)[C@H](CSSC[C@@H](C(=O)N[C@@H](CCCCN)C(=O)N[C@@H](Cc2ccc(O)cc2)C(=O)N[C@H](C(=O)N[C@@H](Cc2ccccc2)C(N)=O)C(C)C)NC(=O)[C@H](Cc2c[nH]c4ccccc24)NC(=O)[C@H](CCCCN)NC(=O)[C@H](Cc2c[nH]cn2)NC(=O)[C@H]([C@@H](C)O)NC(=O)[C@H](CCCNC(=N)N)NC(=O)[C@H](CO)NC3=O)NC(=O)[C@H](CCCCN)NC(=O)[C@H](CC(=O)O)NC(=O)[C@H](CC(N)=O)NC(=O)[C@H](CC(=O)O)NC(=O)[C@@H]2CCCN2C1=O [[2PAL22]GpTx-1(1-34)] (H-DCLGFMRKCIPDNDKCCRPNL[2Pal]CSRTHKWCKYVF-NH2; disulfide 2-17, 9-23, 16-30) |  | 16000 | 7
